Laboratory results reported in article PMC9274004, “Deciphering the Molecular Interaction Between the Adhesion G Protein-Coupled Receptor ADGRV1 and its PDZ-Containing Regulator PDZD7” (Frontiers in Molecular Biosciences, 2022).
Where no end group is shown, it is not given here.

Biological target: T1, PDZD7 PDZ1ext (81-192) (Mus musculus, UniProt E9Q9W7)
T1 construct: PDZ1 (81-167), PDZ1ext (81-192); GST (followed by TEV site) (N, cleaved yes); made in house; host or cells: E. coli BL21 DE3
T1 sequence (E9Q9W7 81-192): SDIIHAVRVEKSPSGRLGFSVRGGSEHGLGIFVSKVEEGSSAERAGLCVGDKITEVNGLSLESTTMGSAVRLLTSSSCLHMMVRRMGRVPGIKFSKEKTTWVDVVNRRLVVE
Assay: NMR titration of PDZ1ext with ADGRV1 ligands
Format: binding, murine
Details: NMR titration (1H-15N HSQC CSP), Tris HCl pH 7.5 (50 mM), 25°C; SD of Kd over at least ten shifting peaks; read-out: Kd
Experimental: All experiments were recorded at 25°C on a Bruker 800 MHz spectrometer equipped with a triple resonance ^1H{^13C/^15N} cryoprobe. The ^1H, ^15 N and ^13C backbone resonances assignment of PDZ1ext was carried out using 3D HNCA, HNCACB, HNCO, HNCOCA experiments (Tris HCl buffer adjusted to pH 6). The 2D ^1H-^15N HSQC spectra used to compare PDZ1, PDZ1ext, PDZ2 and PDZ2ext were recorded in Tris HCl pH 7.5 (50 mM). The 2D ^1H-^15N HSQC spectra used to compare PDZ1ext, PDZ2ext and P1P2 were recorded in Phosphate Buffer pH 6.5 (50 mM). Titration experiments of PDZ1 (WT), PDZ1ext (WT) and PDZ1ext (G103R) against ADGRV1pbm peptide were performed in Tris HCl pH 7.5 (50 mM). Averaged Chemical Shifts Perturbations (CSP) were calculated as: Δδavg = ((Δδ(^1H))^2+(Δδ(^15N)*0.159)^2)^½. […]
We monitored the interaction between PDZD7 constructs and a peptide (ADGRV1pbm) corresponding to the last 13 residues of ADGRV1, encompassing its PBM (sequence VELRRIPIADTHL-COOH; PBM underlined). We measured apparent Kd values of our constructs towards ADGRV1pbm using several biophysical methods (NMR, fluorescence, MicroScale Thermophoresis (MST)) (Table 1; Supplementary Figure S3–S5). […]

- Kd: 47 ± 6 µM
Sequence: VELRRIPIADTHL [ADGRV1pbm]
